Results as given in EP0049060A1, “Imidazoles” (BEECHAM GROUP PLC, priority 1980, dated 1982).
Counter-ions that a name gives are not always drawn. Like-named read-outs stand apart in the source and are kept apart here.

Experiments:
[1] = test system: mice; experiment: Potentiation of the Effects of 5-Hydroxytryptophan (anti-convulsant activity of 5 HTP, electroshock threshold); assay type: in vivo; settings: for ED100: Mus musculus, po, dose increasing the elevation of electroshock threshold due to 5HTP by 100%
Experimental: (§1) The ability of the compounds of this invention to potentiate catecholaminesand 5-hydroxytryptamine was examined using the test methods (1) and (2) below, respectively. These tests are indicative of anti-depressant activity.
(2) Potentiation of the Effects of 5-Hydroxytryptophan
5 HTP Potentiation was measured in mice using the potentiation of the anti-convulsant activity of 5 HTP originally-described by Buus Lassen J., (1975), Psychopharmacol, 42, 21-6. Mice (10/group) were pretreated with the compounds under investigation and 30' later received a sub-threshold level dose of L-5 HTP (100 mg/kg ip). 30 minutes later they were subjected to electroshock and the shock level (in V) required to cause tonic extensor spasm in 50% of the mice determined for all groups.
The dose of compounds required to increase the elevation of electroshock threshold due to 5HTP by 100% is determined graphically.

[2] = test system: mice; experiment: Prevention of Reserpine-induced Hypothermia; assay type: in vivo; settings: Mus musculus, p.o., oral doses 24, 18 and 2 hours before 1 mg/kg i.v. reserpine, active = significant at p<0.05, read-out: Res Prev (lowest active dose)
Excerpt: as §1
(1) Prevention of Reserpine-induced Hypothermia
The method of Spencer in "Anti-Depressant Drugs: Proceedings of the 1st International Symposium", p 184-204. Ed. Garattini, S and Dukes MNG, Excerpta Med Foundation, Amsterdam, 1967, was used. Groups of 5 mice were given oral doses of the test compound 24 hours, 18 hours and 2 hours before an intravenous injection of 1 mg/kg reserpine base. The oral temperatures of the mice were taken immediately before the administration of the reserpine and 6 hours afterwards. Mean temperatures of groups given test compounds are compared with the mean temperatures of the reserpinised controls using the Students t test. Compounds causing significant difference at the level p<0.05 are considered active at that dose.

[3] = Acute toxicity (LD50) in mice; settings: mouse, in vivo, po
[4] = test system: mice; experiment: Acute toxicity (LD50) in mice; settings: initial tests
[5] = biological target: T1, A-form of monoamine oxidase (Homo sapiens, UniProt P21397); experiment: Monoamine oxidase A inhibition (other initial tests); assay type: biochemical
T1 sequence (P21397 1-527): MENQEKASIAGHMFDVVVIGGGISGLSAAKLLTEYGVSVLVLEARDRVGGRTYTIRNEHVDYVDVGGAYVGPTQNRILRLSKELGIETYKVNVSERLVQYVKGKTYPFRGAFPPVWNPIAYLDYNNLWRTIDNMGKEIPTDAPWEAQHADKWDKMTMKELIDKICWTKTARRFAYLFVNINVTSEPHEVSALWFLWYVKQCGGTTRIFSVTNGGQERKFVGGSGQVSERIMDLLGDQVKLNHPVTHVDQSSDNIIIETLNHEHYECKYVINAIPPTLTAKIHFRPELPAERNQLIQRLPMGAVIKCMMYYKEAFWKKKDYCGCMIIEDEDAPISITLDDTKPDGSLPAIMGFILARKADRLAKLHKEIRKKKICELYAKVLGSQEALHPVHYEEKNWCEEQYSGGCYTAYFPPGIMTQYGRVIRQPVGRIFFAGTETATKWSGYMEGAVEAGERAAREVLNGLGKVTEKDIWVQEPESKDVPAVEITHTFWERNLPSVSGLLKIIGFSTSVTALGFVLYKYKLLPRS

[6] = read-out: 5-HTP Potentiation, ED100

Compound	minimal effective dose [2] [mg/kg]	ED100 [1, 6] [mg/kg]	further results
1-(2',4'-Dichlorophenoxyethyl)-4(5)-methylimidazole maleate [Example 22]	–	–	5-HTP Potentiation, % Change of control at x mg/kg, p.o. ([1]; at 30 mg/kg p.o.): 138% at 30
Cc1nccn1CCOc1ccc(Cl)cc1 [Example 1, 1-(4'-Chlorophenoxyethyl)-2-methyl imidazole]	10	–	ED100 ([1]; read-out: 5 HTP pot ED100): 5 mg/kg
Cc1nccn1CCCOc1ccc(Cl)cc1 [Example 2, 1-(4'-Chlorophenoxypropyl)-2-methyl imidazole]	3	–	ED100 ([1]; read-out: 5 HTP pot ED100): 3 mg/kg
Cc1nccn1CCCCOc1ccc(Cl)cc1 [Example 3, 1-(4'-Chlorophenoxybutyl)-2-methyl imidazole]	100	–	ED100 ([1]; read-out: 5 HTP pot ED100): 16 mg/kg
Cc1nccn1CCOc1ccc(F)cc1 [Example 4]	100	–	ED100 ([1]; read-out: 5 HTP pot ED100): 1 mg/kg
COc1ccc(OCCn2ccnc2C)cc1 [Example 5]	10	–	–
Cc1nccn1CCOc1cccc(Cl)c1 [Example 6]	100	–	ED100 ([1]; read-out: 5 HTP pot ED100): 7 mg/kg
Cc1nccn1CCOc1ccccc1Cl [Example 7]	100	–	–
Cc1nccn1CCOc1ccc(Cl)cc1Cl [Example 8, 1-(2',4'-Dichlorophenoxyethyl)-2-methylimidazole]	10	–	ED100 ([1]; read-out: 5 HTP pot ED100): 20 mg/kg
Cc1nccn1CCCOc1ccc(F)cc1 [Example 9]	–	–	ED100 ([1]; read-out: 5 HTP pot ED100): 10 mg/kg
Cc1nccn1CCOc1ccc(Cl)c(Cl)c1 [Example 10, 1-(3',4'-Dichlorophenoxyethyl)-2-methylimidazole]	–	12	–
Cc1nccn1CCOc1cc(Cl)cc(Cl)c1.O=C(O)/C=C\C(=O)O [Example 11, 1-(3',5'Dichlorophenoxyethyl)-2-methylimidazole maleate]	–	18	–
Cc1nccn1CCOc1cccc(Cl)c1Cl [Example 12, 1-(2',3'-Dichlorophenoxyethyl)-2-methylimidazole maleate]	–	28	–
Cc1nccn1CCOc1cc(Cl)ccc1Cl [Example 13, l-(2',5'-Dichlorophenoxyethyl)-2-methylimidazole maleate]	–	19	–
Cc1nccn1CCOc1c(Cl)cccc1Cl [Example 14, 1-(2',6'-Dichlorophenoxyethyl)-2-methylimidazole maleate]	–	9	–
Cc1nccn1CCOc1ccc(Br)cc1Br.O=C(O)/C=C\C(=O)O [Example 15, 1-(2',4'-Dibromophenoxyethyl)-2-methylimidazole maleate]	–	34	–
Cc1nccn1CCOc1ccc(Br)cc1Cl [Example 16, l-(4'-Bromo-2'-chlorophenoxyethyl)-2-methylimidazole maleate]	–	–	5-HTP Potentiation, % Change of control at x mg/kg, p.o. ([1]; at 30 mg/kg p.o.): 96% at 30
Cc1nccn1CCOc1cc(Cl)c(Cl)c(Cl)c1 [Example 17, 1-(3',4',5'-Trichlorophenoxyethyl)-2-methylimidazole maleate]	–	70	–
Cc1cc(Cl)ccc1OCCn1ccnc1C [Example 18, 1-(4'-Chloro-2'-methylphenoxyethyl)-2-methylimidazole maleate]	–	10	–
Cc1cc(OCCn2ccnc2C)cc(C)c1Cl [Example 19, 1-(4'-Chloro-3',5'-dimethylphenoxyethyl)-2-methylimidazole maleate]	–	–	5-HTP Potentiation, % Change of control at x mg/kg, p.o. ([1]; at 100 mg/kg p.o.): 77% at 100
Cc1nccn1CCOc1ccccc1 [Example 20, 1-(2'-Phenoxyethyl)-2-methylimidazole]	–	10	–
Cc1nccn1CCOc1cccc(C(F)(F)F)c1 [Example 21, 1-(3'-Trifluoromethylphenoxyethyl)-2-methylimidazole maleate]	–	26	–
CCc1nccn1CCOc1ccc(Cl)cc1Cl [Example 23, 1-(2',4'-Dichlorophenoxyethyl)-2-ethylimidazole maleate]	–	53	–
Cc1nccn1CCOc1ccc(Cl)cc1Cl [formula (II)"]	–	–	LD50 [3]: > 900 mg/kg; level of toxicity [4]: low level of toxicity; inhibitor of the A-form of monoamine oxidase [5]: selective and reversible inhibitor
